The results in this text go back to ChEMBL document CHEMBL3585333, “Higenamine 4'-O-β-d-glucoside in the lotus plumule induces glucose uptake of L6 cells through β2-adrenergic receptor” (Bioorg Med Chem, 2015).

The source made the active and inactive calls. The rule behind the calls is not given here.

Format in all cases: cell-based
In experiment [1] the target is Beta-2 adrenergic receptor (Rattus norvegicus) (UniProt P10608). The experiment in a line: Activation of beta-2 adrenergic receptor in rat L6 cells assessed as enhancement of 2-deoxyglucose uptake at 10 uM preincubated for 4 hrs followed by 2-deoxyglucose addition measured after 20 mins by fluorescence assay relative to control.
Beta-2 adrenergic receptor (Rattus norvegicus), sequence (P10608 whole entry, looked up): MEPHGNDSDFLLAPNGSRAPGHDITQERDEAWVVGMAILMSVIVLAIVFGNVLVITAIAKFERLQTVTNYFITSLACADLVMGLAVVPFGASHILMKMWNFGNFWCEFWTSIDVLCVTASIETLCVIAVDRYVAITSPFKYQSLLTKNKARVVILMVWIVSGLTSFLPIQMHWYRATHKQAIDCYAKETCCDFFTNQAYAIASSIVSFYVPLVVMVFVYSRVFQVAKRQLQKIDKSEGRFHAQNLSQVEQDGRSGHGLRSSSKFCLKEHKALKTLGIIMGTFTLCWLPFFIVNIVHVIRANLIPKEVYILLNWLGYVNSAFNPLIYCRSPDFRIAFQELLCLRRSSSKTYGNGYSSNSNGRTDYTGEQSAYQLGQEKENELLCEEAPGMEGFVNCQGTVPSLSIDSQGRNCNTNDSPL
Experiment [2] shares this target. Description: Activation of beta-2 adrenergic receptor in rat L6 cells assessed as enhancement of 2-deoxyglucose uptake preincubated for 4 hrs followed by 2-deoxyglucose addition measured after 20 mins by fluorescence assay.
Experiment [3] has the same target. The experiment in a line: Activation of beta-2 adrenergic receptor in rat L6 cells assessed as enhancement of 2-deoxyglucose uptake at 10 uM preincubated for 4 hrs followed by 2-deoxyglucose addition measured after 20 mins by fluorescence assay in presence of PI3K inhibitor LY294002.
Experiment [4] shares this target. The experiment in a line: Activation of beta-2 adrenergic receptor in rat L6 cells assessed as enhancement of 2-deoxyglucose uptake at 10 uM preincubated for 4 hrs followed by 2-deoxyglucose addition measured after 20 mins by fluorescence assay in presence of AMPK inhibitor dorsomorphin.
For experiment [5] the target is unchanged. Description: Activation of beta-2 adrenergic receptor in rat L6 cells assessed as enhancement of 2-deoxyglucose uptake at 10 uM preincubated for 4 hrs followed by 2-deoxyglucose addition measured after 20 mins by fluorescence assay in presence of non-selective beta-adrenergic receptor antagonist propranolol.
Experiment [6] has the same target. The experiment in a line: Activation of beta-2 adrenergic receptor in rat L6 cells assessed as enhancement of 2-deoxyglucose uptake at 10 uM preincubated for 4 hrs followed by 2-deoxyglucose addition measured after 20 mins by fluorescence assay in presence of beta-2 selective adrenergic receptor antagonist ICI118551.

For the compound `OC[C@H]1O[C@@H](Oc2ccc(C[C@@H]3NCCc4cc(O)c(O)cc43)cc2)[C@H](O)[C@@H](O)[C@@H]1O`, in experiment [1], the fold change (FC) worked out at 2.1. Also, the Activity entry in experiment [2] was “Dose-dependent effect”. The outcome in experiment [3] and in experiment [4] was Active. The outcome in experiment [5] and in experiment [6] was inactive.
